# From paper PMC7144934, “Design, Synthesis and Biological Evaluation of Phenyl Urea Derivatives as IDO1 Inhibitors” (Molecules, 2020)
# Legend:
# [1] = target: T1, Recombinant human IDO1 (rhIDO1) (Homo sapiens, UniProt P14902); experiment: Enzyme assay for IDO1 inhibition; type: biochemical; settings: rhIDO1 enzyme assay; for IC50: 37 °C, 45 min
# T1 construct: made in house
# [2] = target: T2, Recombinant human TDO (rhTDO) (Homo sapiens, UniProt P48775); experiment: Enzyme assay for TDO inhibition; type: biochemical; settings: 37 °C, 45 min
# T2 construct: made in house
# Protocol: Recombinant human IDO1 and TDO were expressed and purified according to the reported procedures. The assay was performed according to the literature: A standard reaction mixture (100 µL) containing 100 mM potassium phosphate buffer (pH 6.5), 40 mM ascorbic acid (neutralized with NaOH), 200 µg/mL catalase, 20 µM methylene blue and 0.05 µM rhIDO1 or rhTDO was added to the solution containing the substrate L-tryptophan and the test sample at a determined concentration. The reaction was carried out at 37 °C for 45 min and stopped by adding 20 µL of 30% (w/v) trichloroacetic acid. After heating at 65 °C for 15 min, 100 µL of 2% (w/v) p-dimethylaminobenzaldehyde in acetic acid was added to each well. The yellow pigment derived from kynurenine was measured at 492 nm using a SYNERGY-H1 microplate reader (Biotek Instruments, Inc., Winooski, VT, USA). IC50 was analyzed using the GraphPad Prism 8.0 software (GraphPad Software, San Diego, CA, USA).
# T1 sequence (P14902 whole entry): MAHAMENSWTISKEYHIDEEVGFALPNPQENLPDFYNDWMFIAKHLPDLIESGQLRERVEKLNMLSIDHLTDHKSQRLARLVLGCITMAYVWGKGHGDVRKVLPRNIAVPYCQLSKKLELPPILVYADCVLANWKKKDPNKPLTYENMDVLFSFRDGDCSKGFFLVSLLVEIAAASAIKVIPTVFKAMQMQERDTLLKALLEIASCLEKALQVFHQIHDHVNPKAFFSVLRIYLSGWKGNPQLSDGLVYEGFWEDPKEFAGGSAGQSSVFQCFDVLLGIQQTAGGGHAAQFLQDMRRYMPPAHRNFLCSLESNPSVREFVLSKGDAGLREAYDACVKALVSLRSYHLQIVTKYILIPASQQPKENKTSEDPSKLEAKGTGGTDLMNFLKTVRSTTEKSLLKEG
# T2 sequence (P48775 whole entry): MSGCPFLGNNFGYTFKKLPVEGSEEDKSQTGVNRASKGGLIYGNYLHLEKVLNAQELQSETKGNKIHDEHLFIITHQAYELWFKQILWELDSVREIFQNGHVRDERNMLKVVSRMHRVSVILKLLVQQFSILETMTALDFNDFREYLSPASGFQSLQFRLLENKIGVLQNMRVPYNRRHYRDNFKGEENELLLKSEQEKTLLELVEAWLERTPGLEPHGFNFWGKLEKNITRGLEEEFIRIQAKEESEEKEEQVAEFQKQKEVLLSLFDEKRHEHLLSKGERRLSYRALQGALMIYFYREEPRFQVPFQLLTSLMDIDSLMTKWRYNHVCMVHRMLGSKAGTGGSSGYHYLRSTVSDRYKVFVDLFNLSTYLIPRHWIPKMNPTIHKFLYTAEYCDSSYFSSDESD
SMILES,IC50 [1] [µM],IC50 [2] [µM],IDO1 inhibitory activity (in words) [1]
"Cc1ccc(NC(=O)Nc2cc(C(CC(=O)O)C(F)(F)F)ccc2N2CC(C)CC(C)C2)cc1 (stereo not drawn) [i2, 3-[4-(3,5-dimethylpiperidin-1-yl)-3-(3-p-tolylureido)phenyl]-4,4,4-trifluorobutyric Acid]",8.61,> 100,more potent IDO1 inhibitory activity than the unsubstituted i1
"CC1CC(C)CN(c2ccc(C(CC(=O)O)C(F)(F)F)cc2NC(=O)Nc2ccc(Cl)cc2)C1 (stereo not drawn) [i3, 3-[3-[3-(4-chlorophenyl)ureido]-4-(3,5-dimethylpiperidin-1-yl)-phenyl]-4,4,4-trifluorobutyric Acid]",5.69,> 100,more potent IDO1 inhibitory activity than the unsubstituted i1
"CCCCNC(=O)Nc1cc(C(CC(=O)O)C(F)(F)F)ccc1N1CC(C)CC(C)C1 (stereo not drawn) [i5, 3-[3-(3-butylureido)-4-(3,5-dimethylpiperidin-1-yl)-phenyl]-4,4,4-trifluorobutyric Acid]",> 100,> 100,loss of inhibition
"Cc1ccccc1NC(=O)Nc1cc(C(CC(=O)O)C(F)(F)F)ccc1N1CC(C)CC(C)C1 (stereo not drawn) [i6, 3-[4-(3,5-dimethylpiperidin-1-yl)-3-(3-o-tolylureido)phenyl]-4,4,4-trifluorobutyric Acid]",> 100,> 100,lost all IDO1 inhibitory activity
"Cc1cccc(NC(=O)Nc2cc(C(CC(=O)O)C(F)(F)F)ccc2N2CC(C)CC(C)C2)c1 (stereo not drawn) [i7, 3-[4-(3,5-dimethylpiperidin-1-yl)-3-(3-m-tolylureido)phenyl]-4,4,4-trifluorobutyric Acid]",> 100,> 100,lost all IDO1 inhibitory activity
"CC1CC(C)CN(c2ccc(C(CC(=O)O)C(F)(F)F)cc2NC(=O)Nc2ccccc2Cl)C1 (stereo not drawn) [i8, 3-[3-[3-(2-chlorophenyl)ureido]-4-(3,5-dimethylpiperidin-1-yl)-phenyl]-4,4,4-trifluorobutyric Acid]",> 100,> 100,lost all IDO1 inhibitory activity
"CC1CC(C)CN(c2ccc(C(CC(=O)O)C(F)(F)F)cc2NC(=O)Nc2cccc(Cl)c2)C1 (stereo not drawn) [i9, 3-[3-[3-(3-chlorophenyl)ureido]-4-(3,5-dimethylpiperidin-1-yl)-phenyl]-4,4,4-trifluorobutyric Acid]",> 100,> 100,lost all IDO1 inhibitory activity
"CC1CC(C)CN(c2ccc(C(CC(=O)O)C(F)(F)F)cc2NC(=O)Nc2ccccc2C#N)C1 (stereo not drawn) [i10, 3-[3-[3-(2-cyanophenyl)ureido]-4-(3,5-dimethylpiperidin-1-yl)-phenyl]-4,4,4-trifluorobutyric Acid]",> 100,> 100,lost all IDO1 inhibitory activity

# More lines, now with the values ahead:
IC50 [1] [µM],IC50 [2] [µM],IDO1 inhibitory activity (in words) [1],SMILES
> 100,> 100,,"CCOC(=O)CC(c1ccc(N2CC(C)CC(C)C2)c(NC(=O)Nc2ccccc2)c1)C(F)(F)F (stereo not drawn) [g1, 3-[4-(3,5-dimethylpiperidin-1-yl)-3-(3-phenylureido)-phenyl]-4,4,4-trifluorobutyric Acid Ethyl Ester]"
> 100,> 100,,"CCOC(=O)CC(c1ccc(N2CC(C)CC(C)C2)c(NC(=O)Nc2ccc(C)cc2)c1)C(F)(F)F (stereo not drawn) [g2, 3-[4-(3,5-dimethylpiperidin-1-yl)-3-(3-p-tolylureido)phenyl]-4,4,4-trifluorobutyric Acid Ethyl Ester]"
> 100,> 100,,"CCOC(=O)CC(c1ccc(N2CC(C)CC(C)C2)c(NC(=O)Nc2ccc(Cl)cc2)c1)C(F)(F)F (stereo not drawn) [g3, 3-[3-[3-(4-chlorophenyl)-ureido]-4-(3,5-dimethylpiperidin-1-yl)-phenyl]-4,4,4-trifluorobutyric Acid Ethyl Ester]"
> 100,> 100,loss of inhibition,"CC1CC(C)CN(c2ccc(C(CC(=O)O)C(F)(F)F)cc2NC(=O)NC2CCCCC2)C1 (stereo not drawn) [i4, 3-[3-(3-cyclohexylureido)-4-(3,5-dimethylpiperidin-1-yl)phenyl]-4,4,4-trifluorobutyric Acid]"
